In US11000033B2, “Ketone or oxime compound, and herbicide” (NISSAN CHEMICAL CORPORATION, priority 2014, dated 2021):

Columns and labels:
Format in all cases: in vivo
[1] = tested on: Echinochloa oryzacola Vasing.; assay: Test Example 1: herbicidal activity, application before weed generation in submerged conditions (symbol A); conditions: application herbicide amount 320 g/ha
In short: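 Weed control was rated three weeks after treatment on a 0–5 scale, from 5% or lower up to 90% or more. Pre-emergence water-surface application of diluted emulsion at a predetermined rate was made on the day of sowing, in flooded (4 cm water) pots containing rice seedlings, kept at 25–30 °C under glass.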

[2] = tested on: Echinochloa crus-galli var. crus-galli; assay: Test Example 3: herbicidal effect by foliage application, Wagner pot (symbol H); conditions: application herbicide amount 320 g/ha
In short: (§1)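 Scoring took place 3 weeks after application, using fixed criteria. Plants had been raised from seed for 14 days at 25 to 30 °C in submerged alluvial soil before a diluted emulsion of the test compound was sprayed uniformly on the leaves.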

Leptochloa chinensis = assay: Test Example 3: herbicidal effect by foliage application, Wagner pot (symbol D); conditions: application herbicide amount 320 g/ha
In short: as §1

Digitaria ciliaris [3] = assay: Test Example 4: herbicidal effect by soil treatment (symbol F)
In short: (§2)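 Seeds were sown in sterilized diluvial soil, covered with about 1.5 cm of soil, and the soil surface was sprayed with a water-diluted emulsion of the compound at a predetermined rate. Plants grew in a greenhouse at 25° C. to 30° C.; effects were scored visually 3 weeks after application.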

Setaria viridis [4] = assay: Test Example 4: herbicidal effect by soil treatment (symbol G)
In short: as §2

Avena fatua = assay: Test Example 4: herbicidal effect by soil treatment (symbol I)
In short: as §2

Alopecurus myosuroides = assay: Test Example 4: herbicidal effect by soil treatment (symbol J)
In short: as §2

Amaranthus retroflexus = assay: Test Example 4: herbicidal effect by soil treatment (symbol N)
In short: as §2

Veronica persica = assay: Test Example 4: herbicidal effect by soil treatment (symbol R)
In short: as §2

rapeseed = assay: Test Example 4: effect on crop by soil treatment (symbol g); conditions: for g: rapeseed, effect on crop grade: application herbicide amount 320 g/ha
In short: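 Soil-treatment setup: crop and weed seeds were spot-sown into sterilized diluvial soil, then buried beneath approximately 1.5 cm of it, and the boxes were housed in a 25–30° C. greenhouse.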

Digitaria ciliaris [5] = assay: Test Example 5: herbicidal effect by foliage application, plastic box (symbol F); conditions: 320 g/ha, 3 weeks after application
In short: (§3)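 Leaf-applied emulsion, water-diluted to a preset herbicide dose, on two-week-old seedlings raised in a 25° C. to 30° C. greenhouse; injury rated at 3 weeks using earlier criteria.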

Setaria viridis [6] = assay: Test Example 5: herbicidal effect by foliage application, plastic box (symbol G); conditions: 320 g/ha, 3 weeks after application
In short: as §3

Lolium multiflorum Lam. = assay: Test Example 5: herbicidal effect by foliage application, plastic box (symbol K); conditions: 320 g/ha, 3 weeks after application
In short: as §3

Apera spica-venti = assay: Test Example 5: herbicidal effect by foliage application, plastic box (symbol L); conditions: 320 g/ha, 3 weeks after application
In short: as §3

Abutilon theophrasti = assay: Test Example 5: herbicidal effect by foliage application, plastic box (symbol M); conditions: 320 g/ha, 3 weeks after application
In short: as §3

Chenopodium album = assay: Test Example 5: herbicidal effect by foliage application, plastic box (symbol O); conditions: 320 g/ha, 3 weeks after application
In short: as §3

Stellaria media = assay: Test Example 5: herbicidal effect by foliage application, plastic box (symbol P); conditions: 320 g/ha, 3 weeks after application
In short: as §3

Galium spurium = assay: Test Example 5: herbicidal effect by foliage application, plastic box (symbol Q); conditions: 320 g/ha, 3 weeks after application
In short: as §3

rice plant = assay: Test Example 5: effect on crop by foliage application, plastic box (symbol b); conditions: 320 g/ha, 3 weeks after application
In short: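 Greenhouse culture at 25° C. to 30° C. followed spot-like sowing into sterilized diluvial soil, with seed covered by roughly 1.5 cm of soil.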

[7] = application herbicide amount 320 g/ha

Compound | Herbicidal effect grade, A: Echinochloa oryzacola Vasing. [1] | herbicidal effect on H (Echinochloa crus-galli var. crus-galli), grade 0-5 [2] | herbicidal effect on D (Leptochloa chinensis), grade 0-5 (Leptochloa chinensis) | F: Digitaria ciliaris, herbicidal effect grade (Digitaria ciliaris [3]; [7]) | G: Setaria viridis, herbicidal effect grade (Setaria viridis [4]; [7]) | I: Avena fatua, herbicidal effect grade (Avena fatua; [7]) | J: Alopecurus myosuroides, herbicidal effect grade (Alopecurus myosuroides; [7]) | N: Amaranthus retroflexus, herbicidal effect grade (Amaranthus retroflexus; [7]) | R: Veronica persica, herbicidal effect grade (Veronica persica; [7]) | g: rapeseed, effect on crop grade (rapeseed) | F: Digitaria ciliaris, herbicidal effect grade (Digitaria ciliaris [5]) | G: Setaria viridis, herbicidal effect grade (Setaria viridis [6]) | K: Lolium multiflorum Lam., herbicidal effect grade (Lolium multiflorum Lam.) | L: Apera spica-venti, herbicidal effect grade (Apera spica-venti) | M: Abutilon theophrasti, herbicidal effect grade (Abutilon theophrasti) | O: Chenopodium album, herbicidal effect grade (Chenopodium album) | P: Stellaria media, herbicidal effect grade (Stellaria media) | Q: Galium spurium, herbicidal effect grade (Galium spurium) | b: directly sowed rice plant, effect on crop grade (rice plant) | other results
CON=C(C)CC1CC(O)=C(c2c(C)cc(-c3ccc(Cl)cc3)cc2C)C1=O (mixture of isomers) [6-029] | 5 (Herbicidal ratio of 90% or more (almost completely withered)) | 5 (Herbicidal ratio of 90% or more (almost completely withered)) | 5 (Herbicidal ratio of 90% or more (almost completely withered)) | 5 (Herbicidal ratio of 90% or more (almost completely withered)) | 5 (Herbicidal ratio of 90% or more (almost completely withered)) | 4 (Herbicidal ratio of 70% or higher and lower than 90%) | 5 (Herbicidal ratio of 90% or more (almost completely withered)) | 0 (Herbicidal ratio of 5% or lower (almost no effect)) | 4 (Herbicidal ratio of 70% or higher and lower than 90%) | 2 (Herbicidal ratio of 20% or higher and lower than 40%) | 5 (Herbicidal ratio of 90% or more (almost completely withered)) | 5 (Herbicidal ratio of 90% or more (almost completely withered)) | 5 (Herbicidal ratio of 90% or more (almost completely withered)) | 5 (Herbicidal ratio of 90% or more (almost completely withered)) | 4 (Herbicidal ratio of 70% or higher and lower than 90%) | 4 (Herbicidal ratio of 70% or higher and lower than 90%) | 3 (Herbicidal ratio of 40% or higher and lower than 70%) | 5 (Herbicidal ratio of 90% or more (almost completely withered)) | 5 (Herbicidal ratio of 90% or more (almost completely withered)) | 
Cc1cc(C)c(C2=C(O)CC(CC(=O)C3CCCC3)C2=O)c(C)c1 (stereo not shown) [2-028] | 3 (Herbicidal ratio of 40% or higher and lower than 70%) | 5 (Herbicidal ratio of 90% or more (almost completely withered)) | 5 (Herbicidal ratio of 90% or more (almost completely withered)) | 4 (Herbicidal ratio of 70% or higher and lower than 90%) | 5 (Herbicidal ratio of 90% or more (almost completely withered)) | 0 (Herbicidal ratio of 5% or lower (almost no effect)) | 3 (Herbicidal ratio of 40% or higher and lower than 70%) | 0 (Herbicidal ratio of 5% or lower (almost no effect)) | 0 (Herbicidal ratio of 5% or lower (almost no effect)) | 0 (Herbicidal ratio of 5% or lower (almost no effect)) | 2 (Herbicidal ratio of 20% or higher and lower than 40%) | 5 (Herbicidal ratio of 90% or more (almost completely withered)) | 5 (Herbicidal ratio of 90% or more (almost completely withered)) | 1 (Herbicidal ratio of 5% or higher and lower than 20%) | 0 (Herbicidal ratio of 5% or lower (almost no effect)) | 0 (Herbicidal ratio of 5% or lower (almost no effect)) | 0 (Herbicidal ratio of 5% or lower (almost no effect)) | 0 (Herbicidal ratio of 5% or lower (almost no effect)) | 5 (Herbicidal ratio of 90% or more (almost completely withered)) | 
CON=C(C)CC1CC(OS(=O)(=O)C2CC2)=C(c2c(C)cc(C)cc2C)C1=O (stereo not shown) [1-143] | 4 (Herbicidal ratio of 70% or higher and lower than 90%) | 4 (Herbicidal ratio of 70% or higher and lower than 90%) | 4 (Herbicidal ratio of 70% or higher and lower than 90%) |  |  |  |  |  |  |  |  |  |  |  |  |  |  |  |  | F: Digitaria ciliaris, herbicidal effect grade (Digitaria ciliaris [3]; 320 g/ha): 1 (Herbicidal ratio of 5% or higher and lower than 20%); G: Setaria viridis, herbicidal effect grade (Setaria viridis [4]; 320 g/ha): 1 (Herbicidal ratio of 5% or higher and lower than 20%); I: Avena fatua, herbicidal effect grade (Avena fatua; 320 g/ha): 2 (Herbicidal ratio of 20% or higher and lower than 40%); J: Alopecurus myosuroides, herbicidal effect grade (Alopecurus myosuroides; 320 g/ha): 2 (Herbicidal ratio of 20% or higher and lower than 40%); N: Amaranthus retroflexus, herbicidal effect grade (Amaranthus retroflexus; 320 g/ha): 0 (Herbicidal ratio of 5% or lower (almost no effect)); R: Veronica persica, herbicidal effect grade (Veronica persica; 320 g/ha): 0 (Herbicidal ratio of 5% or lower (almost no effect)); g: rapeseed, effect grade on crop (rapeseed; 320 g/ha): 0 (Herbicidal ratio of 5% or lower (almost no effect)); F: Digitaria ciliaris, herbicidal effect (criteria 0-5) (Digitaria ciliaris [5]): 5 (Herbicidal ratio of 90% or more (almost completely withered)); G: Setaria viridis, herbicidal effect (criteria 0-5) (Setaria viridis [6]): 5 (Herbicidal ratio of 90% or more (almost completely withered)); K: Lolium multiflorum Lam., herbicidal effect (criteria 0-5) (Lolium multiflorum Lam.): 5 (Herbicidal ratio of 90% or more (almost completely withered)); L: Apera spica-venti, herbicidal effect (criteria 0-5) (Apera spica-venti): 5 (Herbicidal ratio of 90% or more (almost completely withered)); M: Abutilon theophrasti, herbicidal effect (criteria 0-5) (Abutilon theophrasti): 1 (Herbicidal ratio of 5% or higher and lower than 20%); O: Chenopodium album, herbicidal effect (criteria 0-5) (Chenopodium album): 0 (Herbicidal ratio of 5% or lower (almost no effect)); P: Stellaria media, herbicidal effect (criteria 0-5) (Stellaria media): 0 (Herbicidal ratio of 5% or lower (almost no effect)); Q: Galium spurium, herbicidal effect (criteria 0-5) (Galium spurium): 0 (Herbicidal ratio of 5% or lower (almost no effect)); b: directly sowed rice plant, effect on crop (criteria 0-5) (rice plant): 2 (Herbicidal ratio of 20% or higher and lower than 40%)
CON=C(C)CC1CC(O)=C(c2c(C)cc(OCC(F)(F)F)cc2C)C1=O (stereo not shown) [6-049] | 5 (Herbicidal ratio of 90% or more (almost completely withered)) | 5 (Herbicidal ratio of 90% or more (almost completely withered)) | 5 (Herbicidal ratio of 90% or more (almost completely withered)) | 5 (Herbicidal ratio of 90% or more (almost completely withered)) | 5 (Herbicidal ratio of 90% or more (almost completely withered)) | 5 (Herbicidal ratio of 90% or more (almost completely withered)) | 5 (Herbicidal ratio of 90% or more (almost completely withered)) | 4 (Herbicidal ratio of 70% or higher and lower than 90%) | 4 (Herbicidal ratio of 70% or higher and lower than 90%) | 5 (Herbicidal ratio of 90% or more (almost completely withered)) | 5 (Herbicidal ratio of 90% or more (almost completely withered)) | 5 (Herbicidal ratio of 90% or more (almost completely withered)) | 5 (Herbicidal ratio of 90% or more (almost completely withered)) | 5 (Herbicidal ratio of 90% or more (almost completely withered)) | 3 (Herbicidal ratio of 40% or higher and lower than 70%) | 5 (Herbicidal ratio of 90% or more (almost completely withered)) | 5 (Herbicidal ratio of 90% or more (almost completely withered)) | 5 (Herbicidal ratio of 90% or more (almost completely withered)) | 5 (Herbicidal ratio of 90% or more (almost completely withered)) | 
